Results: publication PMC4904246 (Journal of Medicinal Chemistry, 2016)
In brackets after ≈: the same amount, converted by molar mass.

Columns and labels:
[1] = kinetic aqueous solubility by nephelometry; assay type: physicochemical; conditions: pH 6.5 phosphate buffer, pH 6.5
[2] = in vitro metabolism, human liver microsomes; assay type: in vitro ADME; conditions: human, pooled human liver microsomes

| Compound | solubility kinetic at 30 min [1] [µg/mL] | CLint scaled at 1 μM [2] [mL/min/kg] |
| --- | --- | --- |
| Cc1cc(NC2Cc3c(C)ccc(C)c3C2)n2nc(C(C)(F)F)nc2n1 [Compound 32, N-(4,7-Dimethyl-2,3-dihydro-1H-inden-2-yl)-2-(1,1-difluoroethyl)-5-methyl-[1,2,4]triazolo[1,5-a]pyrimidin-7-amine] | 6.3 to 12.5 (≈ 17.6 to 35 µM) | 138 |
| Cc1cc(NC2Cc3ccc(Cl)cc3C2)n2nc(C(C)(F)F)nc2n1 (centres unmarked) [Compound 28, N-(5-Chloro-2,3-dihydro-1H-inden-2-yl)-2-(1,1-difluoroethyl)-5-methyl-[1,2,4]triazolo[1,5-a]pyrimidin-7-amine] | 6.3 to 12.5 (≈ 17.3 to 34.4 µM) | 8.2 |
| Cc1cc(NC2Cc3cccc(F)c3C2)n2nc(C(C)(F)F)nc2n1 (centres unmarked) [Compound 34, 2-(1,1-Difluoroethyl)-N-(4-fluoro-2,3-dihydro-1H-inden-2-yl)-5-methyl-[1,2,4]triazolo[1,5-a]pyrimidin-7-amine] | 12.5 to 25 (≈ 36 to 72 µM) | 9.1 |
| Cc1cc(NC2CCc3cc(Br)ccc3C2)n2nc(C(C)(F)F)nc2n1 (centres unmarked) [Compound 12, 2-(1,1-Difluoroethyl)-N-(6-bromo-1,2,3,4-tetrahydronaphthalen-2-yl)-5-methyl-[1,2,4]triazolo[1,5-a]pyrimidin-7-amine] | 3.1 to 6.3 (≈ 7.34 to 14.9 µM) | < 5.8 |
| Cc1cc(NC2CCc3cc(C(F)(F)F)c(F)cc3C2)n2nc(C(C)(F)F)nc2n1 (centres unmarked) [Compound 21, 2-(1,1-Difluoroethyl)-N-(7-fluoro-6-(trifluoromethyl)-1,2,3,4-tetrahydro-naphthalen-2-yl)-5-methyl-[1,2,4]triazolo[1,5-a]pyrimidin-7-amine] | 1.6 to 3.1 (≈ 3.73 to 7.22 µM) | < 5.8 |
| Cc1cc(NC2CCc3cc(F)c(F)cc3C2)n2nc(C(C)(F)F)nc2n1 (centres unmarked) [Compound 19, 2-(1,1-Difluoroethyl)-N-(6,7-difluoro-1,2,3,4-tetrahydronaphthalen-2-yl)-5-methyl-[1,2,4]triazolo[1,5-a]pyrimidin-7-amine] |  | 9.1 |
| COc1ccc2c(c1)CC(Nc1cc(C)nc3nc(C(C)(F)F)nn13)CC2 (centres unmarked) [Compound 16, 2-(1,1-Difluoroethyl)-N-(7-methoxy-1,2,3,4-tetrahydronaphthal-en-2-yl)-5-methyl-[1,2,4]triazolo[1,5-a]pyrimidin-7-amine] | 12.5 to 25 (≈ 33.5 to 67 µM) | 15 |
| Cc1cc(NC2Cc3ccccc3C2)n2nc(C(C)(F)F)nc2n1 [Compound 26, 2-(1,1-Difluoroethyl)-N-(2,3-dihydro-1H-inden-2-yl)-5-methyl[1,2,4]triazolo[1,5-a]pyrim-idin-7-amine] | 25 to 50 (≈ 75.9 to 152 µM) | 20 |

Next, values leading:

| solubility kinetic at 30 min [1] [µg/mL] | CLint scaled at 1 μM [2] [mL/min/kg] | Compound |
| --- | --- | --- |
| 6.3 to 12.5 (≈ 15.9 to 31.5 µM) | 25 | Cc1cc(NC2Cc3cccc(C(F)(F)F)c3C2)n2nc(C(C)(F)F)nc2n1 (centres unmarked) [Compound 36, 2-(1,1-Difluoroethyl)-5-methyl-N-(4-(trifluoromethyl)-2,3-dihydro-1H-inden-2-yl)-[1,2,4]triazolo[1,5-a]pyrimidin-7-amine] |
| 6.3 to 12.5 (≈ 17.2 to 34.2 µM) | 27 | Cc1cc(NC2Cc3c(F)ccc(F)c3C2)n2nc(C(C)(F)F)nc2n1 [Compound 33, N-(4,7-Difluoro-2,3-dihydro-1H-inden-2-yl)-2-(1,1-difluoroethyl)-5-methyl-[1,2,4]triazolo[1,5-a]pyrimidin-7-amine] |
| 6.3 to 12.5 (≈ 17.4 to 34.6 µM) | 12 | Cc1cc(NC2CCc3cc(F)ccc3C2)n2nc(C(C)(F)F)nc2n1 (centres unmarked) [Compound 6, 2-(1,1-Difluoroethyl)-N-(6-fluoro-1,2,3,4-tetrahydronaphthalen-2-yl)-5-methyl-[1,2,4]triazolo[1,5-a]pyrimidin-7-amine] |
| 3.1 to 6.3 (≈ 7.22 to 14.7 µM) | < 5.8 | Cc1cc(NC2CCc3cc(F)c(C(F)(F)F)cc3C2)n2nc(C(C)(F)F)nc2n1 (centres unmarked) [Compound 20, 2-(1,1-Difluoroethyl)-N-(6-fluoro-7-(trifluoromethyl)-1,2,3,4-tetrahydronaphthalen-2-yl)-5-methyl-[1,2,4]triazolo[1,5-a]pyrimidin-7-amine] |
